Some test systems named below: SK-OV-3; COLO 205; A498; SK-MEL-5; HL-60; SF-539; 786-0; CAKI-1; HOP-92; EKVX; U-251; M14; BT-549; MDA-MB-435; SNB-19; IGROV-1; MDA-MB-231; OVCAR-4; NCI-H226; NCI-H522.
Experiment in all cases: NCI tumour cell line growth inhibition, 48 h

SMILES strings stand for the structures.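 Dose response: 5 concentrations. Exposure: 48 h. Format: 96-well plates. Endpoint: linear interpolation; highest concentration if not reached. The concentration for 50% growth inhibition is given as GI50.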 Calls of active or inactive are those of the source. Rule as the data show it: active = GI50 up to about 1.1 µM and inactive = higher. A value given as a limit tells only on which side of the number the result lay.

Regarding `CN1c2ccc(Cl)cc2C(=O)NC1c1ccc([N+](=O)[O-])s1` (stereo not drawn), the GI50 in the assay with SK-OV-3 was 20.2 µM (inactive); in the assay with COLO 205, 21.5 µM (inactive); with A498, 14.8 µM (inactive); in the assay with SK-MEL-5, 16.1 µM (inactive); in the assay with HL-60 it was 19.6 µM (inactive); in the assay on SF-539, 18.1 µM (inactive). Besides, the GI50 was 16.6 µM (inactive) with 786-0; 15.1 µM (inactive) in the assay with CAKI-1; 14.5 µM (inactive) in the assay with HOP-92; 21.5 µM (inactive) in the assay on EKVX; 16.4 µM (inactive) in the assay on U-251; 15.6 µM (inactive) in the assay with M14. Besides, the GI50 is 14.1 µM (inactive) in the assay with BT-549; 16.3 µM (inactive) in the assay on MDA-MB-435; 30.1 µM (inactive) with SNB-19; 15.4 µM (inactive) with IGROV-1; 16.2 µM (inactive) in the assay on MDA-MB-231; 20.4 µM (inactive) in the assay on OVCAR-4.

On to `CN1C(=O)N/C(=C\c2ccc(S(=O)(=O)N/N=C/c3ccccc3)cc2)C1=O`, for which the GI50 in the assay with SK-OV-3 was > 100 µM (inactive); in the assay with COLO 205 it was 71.9 µM (inactive); with NCI-H226, 74.6 µM (inactive); in the assay with A498 it was > 100 µM (inactive); in the assay with SK-MEL-5, 13.6 µM (inactive); with HL-60, 4.93 µM (inactive). Moreover, the GI50 with 786-0 is 34.8 µM (inactive); in the assay on CAKI-1 it was 21.2 µM (inactive); in the assay on HOP-92, 17.1 µM (inactive); with EKVX it was 53.1 µM (inactive); in the assay on U-251 it was 40.6 µM (inactive); in the assay on M14, 37 µM (inactive). The GI50 is 27.7 µM (inactive) in the assay on BT-549; 37 µM (inactive) in the assay with MDA-MB-435; 62.2 µM (inactive) with SNB-19; 42.1 µM (inactive) in the assay on IGROV-1; 11 µM (inactive) in the assay on MDA-MB-231; 18.9 µM (inactive) with OVCAR-4.

Turning to `O=C(c1ccco1)N(C(=S)OCc1ccccn1)c1ccccc1`, the GI50 in the assay with SK-OV-3 was > 100 µM (inactive); with COLO 205 it was > 100 µM (inactive); with NCI-H226 it was 29.6 µM (inactive); in the assay with A498, > 100 µM (inactive); in the assay on SK-MEL-5, 88.9 µM (inactive); in the assay on HL-60, > 100 µM (inactive). Further, the GI50 in the assay on SF-539 is 36 µM (inactive); in the assay on 786-0 it was > 100 µM (inactive); with CAKI-1 it was > 100 µM (inactive); in the assay with EKVX, 13.3 µM (inactive); in the assay with U-251 it was > 100 µM (inactive); in the assay on M14 it was > 100 µM (inactive). The GI50 is > 100 µM (inactive) in the assay with BT-549; > 100 µM (inactive) in the assay on MDA-MB-435; > 100 µM (inactive) in the assay on SNB-19; 50.1 µM (inactive) with IGROV-1; > 100 µM (inactive) in the assay on MDA-MB-231.

`O=C1CN(c2ccc(Cl)cc2)C(=O)CN1CCN1CC(=O)N(c2ccc(Cl)cc2)CC1=O`: the GI50 with SK-OV-3, with COLO 205, in the assay on A498, with SK-MEL-5, with HL-60 and in the assay on 786-0 was > 100 µM (inactive) in each case. In addition, the GI50 in the assay on CAKI-1, with HOP-92, in the assay on EKVX, in the assay with NCI-H522, in the assay with U-251 and with M14 was > 100 µM (inactive) each time. The GI50 in the assay on BT-549, in the assay on MDA-MB-435, in the assay on SNB-19, with IGROV-1 and in the assay with OVCAR-4 was > 100 µM (inactive) in each case.

Consider `CCN(CC)CCn1nc(N)c2nc3ccccc3nc21`, for which the GI50 in the assay on SK-OV-3, in the assay with NCI-H226, in the assay on A498, with HL-60, in the assay on SF-539 and in the assay on 786-0 was > 100 µM (inactive) throughout. Besides, the GI50 with CAKI-1 is 72.6 µM (inactive); with HOP-92 it was > 100 µM (inactive); with EKVX, > 100 µM (inactive); with NCI-H522, 96.4 µM (inactive); in the assay with U-251, > 100 µM (inactive); in the assay on M14, > 100 µM (inactive). Besides, the GI50 in the assay on BT-549, in the assay with MDA-MB-435, in the assay on SNB-19, in the assay with IGROV-1 and with OVCAR-4 was > 100 µM (inactive) throughout.

As to `O=[N+]([O-])c1ccc(SN=S=NSc2cccc(SN=S=NSc3ccc([N+](=O)[O-])cc3)c2)cc1`, the GI50 in the assay on SK-OV-3 was > 100 µM (inactive); in the assay with COLO 205, 46.5 µM (inactive); with A498, 94.8 µM (inactive); in the assay with SK-MEL-5, 28.4 µM (inactive); in the assay on HL-60 it was 28.2 µM (inactive); in the assay on 786-0, 13.8 µM (inactive). The GI50 with CAKI-1 was 19 µM (inactive); in the assay with HOP-92, > 100 µM (inactive); in the assay on EKVX, 39.3 µM (inactive); with NCI-H522 it was 15.8 µM (inactive); in the assay with U-251 it was 16.4 µM (inactive); in the assay with M14 it was 37 µM (inactive). Also, the GI50 in the assay with BT-549 is 19.3 µM (inactive); in the assay on MDA-MB-435 it was 25.2 µM (inactive); with SNB-19, 38.5 µM (inactive); with IGROV-1 it was 39.8 µM (inactive); in the assay on OVCAR-4, 36.7 µM (inactive).

With `O=C(O)c1cc(NC2=C(Cl)C(=O)c3c(O)ccc(O)c3C2=O)ccc1O`, the GI50 in the assay with SK-OV-3, in the assay on COLO 205, with NCI-H226, with A498, with SK-MEL-5 and with SF-539 was > 10 µM (inactive) each time. Also, the GI50 with 786-0, in the assay on CAKI-1, in the assay on HOP-92, in the assay on EKVX, in the assay on U-251 and in the assay with M14 was > 10 µM (inactive) each time. For the same compound, the GI50 in the assay on BT-549, in the assay with MDA-MB-435, in the assay on SNB-19, in the assay with IGROV-1, with MDA-MB-231 and in the assay with OVCAR-4 was > 10 µM (inactive) throughout.

Turning to `COc1ccccc1NC(=O)C(=O)Cc1cnc2ccccc2n1`, the GI50 in the assay on SK-OV-3, in the assay on COLO 205, in the assay with NCI-H226, in the assay with A498, with SK-MEL-5 and with HL-60 was > 100 µM (inactive) in each case. The GI50 in the assay on SF-539, in the assay on 786-0, in the assay with CAKI-1, in the assay with HOP-92, in the assay on U-251 and in the assay with M14 was > 100 µM (inactive) throughout. The GI50 in the assay on BT-549, in the assay with MDA-MB-435, in the assay with SNB-19, in the assay on MDA-MB-231 and in the assay on OVCAR-4 was > 100 µM (inactive) throughout.

For the compound `COc1ccc2nc(N/N=C/c3sccc3C)cc(C)c2c1`, the GI50 in the assay with SK-OV-3 was 13.2 µM (inactive); in the assay with COLO 205 it was 13.6 µM (inactive); with NCI-H226, 18.8 µM (inactive); in the assay with A498 it was 12.2 µM (inactive); with SK-MEL-5, 12.9 µM (inactive); in the assay with HL-60, 18.3 µM (inactive). Moreover, the GI50 is 14.4 µM (inactive) in the assay on 786-0; > 100 µM (inactive) in the assay with CAKI-1; 6.07 µM (inactive) with HOP-92; 18.2 µM (inactive) in the assay on EKVX; 15.4 µM (inactive) in the assay on U-251; 11.9 µM (inactive) with M14. Moreover, the GI50 in the assay with BT-549 was 15.6 µM (inactive); with MDA-MB-435 it was 14.1 µM (inactive); in the assay on SNB-19, 29 µM (inactive); in the assay with IGROV-1 it was 15.1 µM (inactive); in the assay with MDA-MB-231 it was 0.406 µM (active); in the assay with OVCAR-4, 21.4 µM (inactive).

Take `N#CC(C#N)=C(N)/C(C#N)=C/c1ccc2[nH]ccc2c1`: the GI50 in the assay with SK-OV-3, in the assay on COLO 205, in the assay on NCI-H226, in the assay with A498, with SK-MEL-5 and in the assay on HL-60 was > 100 µM (inactive) each time. Moreover, the GI50 is > 100 µM (inactive) in the assay with SF-539; > 100 µM (inactive) in the assay with 786-0; > 100 µM (inactive) in the assay on CAKI-1; > 100 µM (inactive) with HOP-92; > 100 µM (inactive) in the assay with EKVX; 97.3 µM (inactive) in the assay on NCI-H522. The GI50 in the assay on U-251 is > 100 µM (inactive); in the assay on M14 it was > 100 µM (inactive); in the assay on BT-549, 70.6 µM (inactive); with MDA-MB-435 it was > 100 µM (inactive); in the assay with SNB-19 it was > 100 µM (inactive); in the assay on IGROV-1 it was > 100 µM (inactive). The GI50 with OVCAR-4 is > 100 µM (inactive).

As for `Cn1cc(NC(=O)c2cc(NC(=O)c3cc(NC=O)cn3C)cn2C)cc1C(=O)NCCC(=N)N` [STALLIMYCIN], the GI50 in the assay on SK-OV-3 is > 100 µM (inactive); with COLO 205, > 100 µM (inactive); in the assay with NCI-H226, 7.87 µM (inactive); in the assay with A498, 87.9 µM (inactive); in the assay on SK-MEL-5, > 100 µM (inactive); in the assay on HL-60, > 100 µM (inactive). Further, the GI50 with SF-539, in the assay with 786-0, in the assay with CAKI-1, with EKVX, with U-251 and in the assay with M14 was > 100 µM (inactive) in each case. In addition, the GI50 in the assay with BT-549, in the assay with MDA-MB-435, in the assay with SNB-19, in the assay on IGROV-1 and in the assay on MDA-MB-231 was > 100 µM (inactive) in each case.
